Measurements reported in patent US12728121B2, “Compositions and methods for treating idiopathic pulmonary fibrosis” (Seyltx, Inc., priority 2019, dated 2026).

Legend:
Assay type in all cases: in vivo, Mouse/C57BL/6
[1] = test system: BLM-induced fibrosis; assay: Bleomycin (BLM)-induced lung fibrosis in mice: Gomori's Trichrome score of lung sections; conditions: for Trichrome score (average) / % reduction in fibrosis: day 21; for Trichrome score (average): BLM 2.5 U/kg intratracheal, p.o. once daily 14 days from day 7, mg/kg: Pirfenidone 300, Bromantane 20, Ifenoprodil 30, Radiprodil 30, Bemithyl 200, Dexamethasone 0.25, Repirinast 90, Normal 1.00, Vehicle 4.59; for % reduction in fibrosis: from Trichrome scores relative to vehicle and normal groups, doses as Table 1, p.o. once daily 14 days
Procedure: (§1) The mouse species or strain was Mouse/C57BL/6, the mice being 8-10 week old males. Nine groups of 10 mice each were obtained from Charles River Laboratories. Each group was randomized based on body weight. Bleomycin (BLM) was obtained from Euroasias.
(§2) The mice were anesthetized with isoflurane/O2 mixture. Bleomycin (BLM) was then administered to the mice intratracheally (PennCentury)—single bolus, at 2.5 U/kg body weight in 50 μl sterile saline.
(§3) Seven days after the bleomycin is administered, and fibroblasts have generally proliferated, six of the nine groups of IT bleomycin challenged mice were be dosed orally (p.o.) once a day with Bromantane, Ifenoprodil, Radiprodil, Bemithyl, Dexamethasone, or Repirinast at specified amounts per kg of body weight (mg/kg) daily for 14 consecutive days. The amounts are set out in Table 1 below. The vehicle used was 0.5% carboxymethyl cellulose (CMC). Prifenidone was also prepared in 0.5% CMC and administrated orally once a day to one of the nine IT bleomycin challenged mice groups beginning for 14 consecutive days. Vehicle and no-BLM control groups received 0.5% CMC orally for 14 consecutive days.
On day 21 of the study, 4 hours after the last dose, the mice were sacrificed and plasma was collected and frozen for cytokine analysis (testing for IL-6, IL-12, TGFβ, IL-13 proteins, or fibrosis markers). Bronchoalveolar lavage fluid (BALF) was collected and frozen for optional cytokine analyses and cell counts pending the initial data. The lungs were then excised, weighed and fixed in formalin. Gomori's Trichrome stain, a histological stain, was used to determine collagen content.
Trichrome Score: A trichrome score measures the level of scarring to the lungs caused by the disease. The greater the trichrome score, the greater the scarring.
Formalin fixed lung samples were submitted to affiliated histopathology laboratory for histopathological analysis subjected Gomori's Trichrome stain, a histological stain, which was used to determine collagen content.
Each lung was divided into ten sections. All ten sections were stained and evaluated. A board certified veterinarian pathologist assessed the presence of lung fibrosis and severity score—The expression of collagen (associated with fibrosis) is determined from the ratio of the stained area versus the total area of the lung section.

[2] = test system: BLM-induced fibrosis; assay: Bleomycin (BLM)-induced lung fibrosis in mice: mortality rate over 21 days; conditions: doses as Table 1; for Fatality Number: deaths/mice per group over 21 days, Vehicle 2/10; for Percent Fatality: over 21 days, Vehicle 20%
Procedure: as §1, §2, §3
Mortality Rate: the mortality rate in each group was also observed over 21 days.

[3] = Bleomycin (BLM)-induced lung fibrosis in mice: body weight over 21 days; conditions: for Percent Change in Body Weight / Body Weight: doses as Table 1; for Body Weight: group mean; for changes in body weight as compared to the BLM-vehicle group (in words): doses as Table 1, p.o. once daily
Procedure: as §1, §2, §3
Body Weight: The body weights were measured over 21 days using a laboratory balance.

[4] = doses as Table 1, order: Dexamethasone and Repirinast, followed by Ifenprodil and Radiprodil

SMILES	Trichrome score (average) [1]	% reduction in fibrosis [1] [%]	Fatality Number [2]	Percent Fatality [2] [%]	Percent Change in Body Weight ([3]; 7-Nov) [%]	Body Weight ([3]; 7-Nov) [g]	Percent Change in Body Weight ([3]; 8-Nov) [%]	Body Weight ([3]; 8-Nov) [g]	Percent Change in Body Weight ([3]; 9-Nov) [%]	Body Weight ([3]; 9-Nov) [g]	Percent Change in Body Weight ([3]; 12-Nov) [%]	Body Weight ([3]; 12-Nov) [g]	Percent Change in Body Weight ([3]; 14-Nov) [%]	Body Weight ([3]; 14-Nov) [g]	Percent Change in Body Weight ([3]; 16-Nov) [%]	Body Weight ([3]; 16-Nov) [g]	Percent Change in Body Weight ([3]; 20-Nov) [%]	Body Weight ([3]; 20-Nov) [g]	Percent Change in Body Weight ([3]; 22-Nov) [%]	Body Weight ([3]; 22-Nov) [g]	other results
C[C@@H]([C@H](O)c1ccc(O)cc1)N1CCC(Cc2ccccc2)CC1 (stereo in doubt) [Ifenoprodil, 4-[2-(4-benzylpiperidin-1-ium-1-yl)-1-hydroxypropyl] phenol; 2,3,4-trihydroxy-4-oxobutanoate]	3.37	34.0	0/10	0	0.0	24.4	−0.1	24.3	−0.3	24.1	−2.0	22.4	−1.3	23.1	−0.8	23.6	−0.3	24.1	0.5	24.9	Trichrome score response versus BLM-vehicle group (in words) [1, 4]: response was better; percent reduction in lung fibrosis in comparison to the BLM-vehicle group (in words) [1, 4]: higher; improvement in lung fibrosis, loss of body weight, Trichrome score and mortality as compared to BLM-vehicle (conclusion, in words) ([1]; oral administration, Dexamethasone 0.25, Repirinast 90, Ifenprodil 30, Radiprodil 30 mg/kg): showed improvement; percent survival (in words) ([2]; order: Dexamethasone and Repirinast, followed by Ifenprodil and Radiprodil): higher; Percent Change in Body Weight ([3]; 26-Nov): 0.2%; Body Weight ([3]; 26-Nov): 24.6 g; Percent Change in Body Weight ([3]; 28-Nov): 0.7%; Body Weight ([3]; 28-Nov): 25.1 g; changes in body weight as compared to the BLM-vehicle group (in words) [3]: showed improvement beginning on Day 5
CCSc1nc2ccccc2[nH]1 [Bemithyl, 2-Ethylsulfanyl-1H-benzoimidazole]	4.14	12.5	1/10	10	0.0	24.6	0.0	24.7	−0.6	24.1	−1.6	23.0	−1.1	23.5	−1.7	22.9	−1.6	23.1	−0.6	24.0	Percent Change in Body Weight ([3]; 26-Nov): −0.9%; Body Weight ([3]; 26-Nov): 23.7 g; Percent Change in Body Weight ([3]; 28-Nov): −0.3%; Body Weight ([3]; 28-Nov): 24.3 g; changes in body weight as compared to the BLM-vehicle group (in words) [3]: showed improvement beginning on Day 5
Brc1ccc(NC2C3CC4CC(C3)CC2C4)cc1 (stereo not shown) [Bromantane, N-(4-bromophenyl)adamantan-2-amine]	4.00	16.4	3/10	30	0.0	24.8	−0.1	24.7	−0.8	24.0	−1.8	23.1	−1.1	23.7	−1.5	23.3	−1.9	22.9	−1.6	23.2	Percent Change in Body Weight ([3]; 26-Nov): −1.0%; Body Weight ([3]; 26-Nov): 23.8 g; Percent Change in Body Weight ([3]; 28-Nov): 0.4%; Body Weight ([3]; 28-Nov): 25.2 g; changes in body weight as compared to the BLM-vehicle group (in words) [3]: showed improvement beginning Day 5, with the exception of Day 15
